How the values were obtained:
PARP1 = PARP1 (Homo sapiens, UniProt P09874); test: Enzymatic inhibition on the PARP family members (ELISA), PARP1; format: biochemical
TNKS2 = molecular target: T1, TNKS2 (Homo sapiens, UniProt Q9H2K2); test: Enzymatic inhibition on the PARP family members (ELISA), TNKS2; format: biochemical; details: PARP family panel, 30° C.
T1 sequence (Q9H2K2 1-1166): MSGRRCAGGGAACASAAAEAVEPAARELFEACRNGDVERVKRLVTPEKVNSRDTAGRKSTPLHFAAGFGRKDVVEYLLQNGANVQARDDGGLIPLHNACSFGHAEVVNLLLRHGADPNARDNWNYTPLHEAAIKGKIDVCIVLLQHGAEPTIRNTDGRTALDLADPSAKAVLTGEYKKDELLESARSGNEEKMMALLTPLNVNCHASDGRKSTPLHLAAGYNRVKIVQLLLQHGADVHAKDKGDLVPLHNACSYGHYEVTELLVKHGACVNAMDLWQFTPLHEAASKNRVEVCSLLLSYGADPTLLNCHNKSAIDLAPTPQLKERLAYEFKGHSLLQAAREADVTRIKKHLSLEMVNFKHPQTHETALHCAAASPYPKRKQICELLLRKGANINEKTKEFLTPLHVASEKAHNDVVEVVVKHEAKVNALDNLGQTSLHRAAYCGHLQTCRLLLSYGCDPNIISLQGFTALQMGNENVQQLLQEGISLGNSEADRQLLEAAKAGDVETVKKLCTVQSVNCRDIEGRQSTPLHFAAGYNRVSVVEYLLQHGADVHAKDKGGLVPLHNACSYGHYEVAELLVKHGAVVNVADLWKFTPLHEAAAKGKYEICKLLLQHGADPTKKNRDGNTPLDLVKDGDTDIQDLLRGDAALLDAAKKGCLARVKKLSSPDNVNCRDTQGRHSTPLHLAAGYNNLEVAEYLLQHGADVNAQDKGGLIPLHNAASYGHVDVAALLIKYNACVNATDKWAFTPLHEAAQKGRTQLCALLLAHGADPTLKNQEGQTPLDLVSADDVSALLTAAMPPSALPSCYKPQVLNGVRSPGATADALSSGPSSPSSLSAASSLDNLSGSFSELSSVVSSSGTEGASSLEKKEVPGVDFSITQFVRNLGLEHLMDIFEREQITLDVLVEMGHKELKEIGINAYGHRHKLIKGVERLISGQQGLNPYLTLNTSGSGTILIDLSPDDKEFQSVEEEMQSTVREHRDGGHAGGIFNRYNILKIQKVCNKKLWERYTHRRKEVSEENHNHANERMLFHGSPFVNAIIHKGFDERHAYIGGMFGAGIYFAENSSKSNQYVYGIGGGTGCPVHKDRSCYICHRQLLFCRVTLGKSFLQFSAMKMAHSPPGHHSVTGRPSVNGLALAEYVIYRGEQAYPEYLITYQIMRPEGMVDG

Sequence of PARP1 (P09874 whole entry): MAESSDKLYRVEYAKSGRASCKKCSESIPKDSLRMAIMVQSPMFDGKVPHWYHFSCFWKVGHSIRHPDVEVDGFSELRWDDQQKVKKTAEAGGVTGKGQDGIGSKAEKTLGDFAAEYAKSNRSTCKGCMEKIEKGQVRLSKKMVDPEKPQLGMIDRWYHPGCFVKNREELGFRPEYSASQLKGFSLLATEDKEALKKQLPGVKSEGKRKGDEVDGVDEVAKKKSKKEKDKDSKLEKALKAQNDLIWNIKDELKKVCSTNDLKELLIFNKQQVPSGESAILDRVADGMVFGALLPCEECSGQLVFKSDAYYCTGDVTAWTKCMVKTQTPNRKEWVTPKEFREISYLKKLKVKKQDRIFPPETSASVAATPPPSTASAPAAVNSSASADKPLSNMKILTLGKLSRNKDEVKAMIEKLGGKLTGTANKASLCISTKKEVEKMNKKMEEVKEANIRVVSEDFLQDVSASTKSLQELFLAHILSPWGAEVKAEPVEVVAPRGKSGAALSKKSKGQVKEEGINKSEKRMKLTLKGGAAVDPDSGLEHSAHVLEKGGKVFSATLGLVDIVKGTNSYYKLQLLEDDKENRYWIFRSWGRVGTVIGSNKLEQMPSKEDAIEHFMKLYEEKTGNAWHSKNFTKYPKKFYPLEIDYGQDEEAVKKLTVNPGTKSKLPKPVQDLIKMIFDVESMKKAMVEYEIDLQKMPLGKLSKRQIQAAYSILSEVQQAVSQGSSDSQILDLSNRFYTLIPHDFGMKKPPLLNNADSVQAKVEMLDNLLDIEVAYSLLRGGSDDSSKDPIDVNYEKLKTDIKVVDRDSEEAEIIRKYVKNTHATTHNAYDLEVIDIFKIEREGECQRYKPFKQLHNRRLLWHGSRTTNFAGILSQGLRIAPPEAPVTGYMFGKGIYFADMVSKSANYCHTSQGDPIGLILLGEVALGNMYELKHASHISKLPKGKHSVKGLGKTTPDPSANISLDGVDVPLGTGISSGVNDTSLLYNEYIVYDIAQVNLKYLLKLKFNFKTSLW

inhibitory activity on PARP1/2 relative to other isoenzymes in the family (PARP1; PARP1/2 versus PARP3, TNKS1, TNKS2, PARP6): at least 400 times
IC50 (PARP1; PARP family panel): 0.0032 µM
IC50 (TNKS2): 1.3 µM
Compound: CNCc1ccc(-c2cc3cc(F)cc(C(N)=O)c3o2)cc1 [compound 5b, 5-fluoro-2-{4-[(methylamino)methyl]phenyl}benzofuran-7-carboxamide]

From patent US9533965B2, “2-arylbenzofuran-7-formamide compounds, preparation method and use thereof” (SHANGHAI INSTITUTE OF MATERIA MEDICA, CHINESE ACADEMY OF …, priority 2012, dated 2017)
